# Measured values reported in patent US20130317096A1, “SYNERGISTIC INTERACTION OF AT LEAST ONE VITAMIN E COMPONENT AND TYROSINASE INHIBITORS FOR DERMATOLOGICAL APPLICATIONS” (Davos Life Science Pte Ltd, priority 2010, published 2013).
# “Also recorded” adds a separate entry of the source.
# Key:
# [1] = tested on: B16 melanoma cells; experiment: MTT cell viability assay; type: cell-based, mouse; details: 24 hrs of treatment, increasing dosages
# Method: B16 mouse melanoma cells were purchased from (ATCC, Manassas, Va., USA).
# The base medium for the cell line was Dulbecco's modified Eagle's medium (DMEM). To make the complete growth medium, fetal bovine serum (final concentration, 10%) was added to the base medium. Tocotrienol (T3) and tocopherol (TP) isomers and the palm tocotrienol-rich fraction (TRF) were purified from a palm fatty acid distillate (PFAD) using molecular distillation and Novasep® equipment (Novasep, Pompey, France). The extraction facility is located in Tuas, Singapore. The PFAD feed was purchased from Kuala Lumpur Kepong Berhad (Kuala Lumpur, Malaysia). The purity of the vitamin E isomers was verified by HPLC and gas chromatography (GC) percentage peak area.
# For the cell viability study, 5×10^3 cells re-suspended in 100 μl of medium were plated into each well of a 96-well plate. The cells were then treated with different concentrations of the vitamin-E isomers for 24 hrs. After the treatment, 20 μl of MTT solution (1 mg/ml in PBS; Sigma-Aldrich, St. Louis, Mo., USA) was added to each well and the cells were incubated at 37° C. for 2 hrs. The formazan crystals were then re-suspended in 200 μl of DMSO and the intensity at 595 nm was measured.
# [2] = tested on: tyrosinase; experiment: UV-induced tyrosinase protein expression, Western blot; type: cell-based, mouse
# Method: (§2) The UVB source for cell irradiation was provided using a UVP UVM-57 handheld UV lamp (UVP Inc, Upland, Calif., USA).
# Briefly, cell lysates were prepared by suspending cell pellets in lysis buffer (50 mmol/l Tris-HCl [pH 8.0], 150 mmol/l NaCl, 1% NP40, 0.5% deoxycholate, 0.1% SDS, 1 mg/ml aprotinin, 1 μg/ml leupeptin, and 1 mmol/l phenylmethylsulfonyl fluoride). The protein concentration was measured using the DC Protein Assay kit (Bio-Rad, Hercules, Calif., USA). An equal amount of protein (30 μg) was loaded onto a 10% SDS polyacrylamide gel for electrophoresis, then transferred onto a polyvinylidene difluoride membrane (Amersham, Piscataway, N.J., USA). The membrane was then incubated with primary antibodies for 1 hr at room temperature against tyrosinase, Id1, and beta-actin (Santa Cruz Biotechnology, Inc., Santa Cruz, Calif., USA). After incubation with appropriate secondary antibodies, signals were visualized by an ECL Western blotting system (Amersham). The expression of β-actin was assessed as an internal loading control for total cell lysate.
# [3] = tested on: B16 melanoma cells; experiment: Melanin content of treated B16 melanoma cells; type: cell-based, mouse; details: for melanin content lower than controls: 20 μM
# Method: (§1) At different time points, cells were harvested using trysin-EDTA and the cell pellets were washed once with phosphate-buffered saline (PBS). A sample amount from each compound treatment group was divided into two equal parts. These cell pellets were then stored at −80° C. prior to the measurement of the tyrosinase activity and melanin content.
# Harvested cell pellets were dissolved in 1 ml of 1N sodium hydroxide before incubation at 80° C. The melanin content was then immediately measured at 420 nm. The absorbance percentage values of the treated groups in comparison to untreated controls were calculated against per μg of the determined total protein content.
# [4] = tested on: tyrosinase; experiment: Western blot of tyrosinase protein expression in B16 melanoma cells; type: cell-based, mouse; details: for tyrosinase protein expression: 20 μM treatment; for tyrosinase protein suppression, dose response and relative potency: increasing dosage; for time response of tyrosinase suppression: single dose, 24 hrs versus 48 hrs
# Method: Carcinogenesis, 2006, 27, 2180-9. Briefly, cell lysates were prepared by suspending cell pellets in lysis buffer (50 mmol/l Tris-HCl [pH 8.0], 150 mmol/l NaCl, 1% NP40, 0.5% deoxycholate, 0.1% SDS, […], 1 μg/ml leupeptin, and 1 mmol/l phenylmethylsulfonyl fluoride). The protein concentration was measured using the DC Protein Assay kit (Bio-Rad, Hercules, Calif., USA). An equal amount of protein (30 μg) was loaded onto a 10% SDS polyacrylamide gel for electrophoresis, then transferred onto a polyvinylidene difluoride membrane (Amersham, Piscataway, N.J., USA). The membrane was then incubated with primary antibodies for 1 hr at room temperature against tyrosinase, Id1, and beta-actin (Santa Cruz Biotechnology, Inc., Santa Cruz, Calif., USA). After incubation with appropriate secondary antibodies, signals were visualized by an ECL Western blotting system (Amersham). The expression of β-actin was assessed as an internal loading control for total cell lysate.
# [5] = tested on: cleaved caspase 3 and PARP; experiment: Western blot of apoptotic molecules; type: cell-based, mouse; details: B16 melanoma cells
# [6] = tested on: B16 cells xenografted on the flank of nude mice; experiment: B16 xenograft model in nude mice; type: in vivo; details: cells pre-treated with 20 μM for 1 week, 14 days oral supplementation
# Method: The experimental protocol was approved by the IACUC Committee of the A-STAR Biological Resource Centre (BRC) at Biopolis (IACUC no. 080302). Male BALB/c athymic nude mice (4-5 weeks old, 18-22 g) were purchased from The Jackson Laboratory (Bar Harbor, Me., USA). Mice were housed in Department 1 of the Biological Resource Centre (Biopolis, Singapore) under the standard condition (20.8±2° C., 55±1% relative humidity, 12 hrs light/dark cycle) with rodent diet (Harlan Laboratories, Inc., Indianapolis, Ind., USA) and chlorinated reverse osmosis water supplied in a pathogen-free environment. Briefly, B16 cells were pre-treated with 20 μM of γ- and δ-T3, or palm TRF for 1 week. Then, 5×10^5 pre-treated B16 cells in 100 μl serum-free DMEM were injected subcutaneously into the flank of nude mice using a 1-ml syringe with a 26-gauge needle (Becton Dickinson, Franklin Lakes, N.J., USA). This was followed by a 2-week oral supplementation of γ- and δ-T3, or palm TRF at the dose of 100 mg/kg/day. Altogether, there are four experimental groups: G1, vehicle control; G2, γT3 (100 mg/kg/d); G3, δT3 (100 mg/kg/d); and G4, full spectrum palm TRF (100 mg/kg/d). The mice were weighed daily and the tumors were measured using a Digital Carbon Fiber Caliper (Fisher Scientific, Pittsburgh, Pa., USA) at the 5th and 14th day after innoculation. After 14 days of treatment, the mice were euthanized by CO2 inhalation. Blood samples were collected through cardiac bleeding using a 26-gauge needle. Blood samples were incubated at room temperature for 30 min, followed by centrifugation at 4400 rpm for 30 min at 4° C. Serum, as the supernatant, was separated from plasma and stored at −80° C. Tumors, liver, kidney, spleen, lung, heart, and skin were harvested.
# [7] = tested on: B16 cells; experiment: Melanin content of pre-treated B16 cells after UV exposure; type: cell-based, mouse; details: 10 minutes UV exposure (short and long wave UV)
# From the text: as §2
# [8] = tested on: tyrosinase mRNA; experiment: Reverse transcriptase PCR of tyrosinase mRNA; type: cell-based, mouse; details: B16 melanoma cells
# From the text: Total RNA was isolated using Trizol reagent according to the manufacturer's protocol (Invitrogen, Carlsbad, Calif., USA). cDNA was synthesized using the SuperScript First Strand Synthesis System (Invitrogen, Carlsbad, Calif., USA) and was then amplified by PCR with tyrosinase-specific primers (forward primer, tyrosinase-S,5′-[…]-3′ [−2236/−2217] (SEQ ID NO: 1) and reverse primer, tyrosinase-AS,5′-[…]-3′ [+63/+42]) (SEQ ID NO: 2) and GAPDH specific primers: 5′ to 3′F […] (SEQ ID NO: 3); 5′ to 3′R […] (SEQ ID NO: 4). The PCR cycling protocol was as follows: 30 cycles for 10 min at 95° C., 30 sec at 95° C., 30 sec at 55° C., 1 min at 72° C., and 10 min at 72° C. Glyceraldehyde 3-phosphate dehydrogenase (GAPDH) was amplified as an internal control. The PCR products were electrophoresed on a 2% agarose gel and analyzed using a gel documentation system.
# [9] = tested on: B16 melanoma cells; experiment: Anti-pigmentation effect, photographs of cell pellets; type: cell-based, mouse; details: 20 μM
# Method: as §1
smiles,measurement,setting,value
"CC(C)=CCC/C(C)=C/CC/C(C)=C/CC[C@]1(C)CCc2cc(O)cc(C)c2O1 [δ-tocotrienol, 8-methyltocotrienol]",B16 melanoma cell viability / proliferation rate,[1],inhibited the proliferation rate of B16 melanoma cells in a dose-dependent fashion; also recorded: inhibit B16 melanoma cell viability at high concentrations
same,suppression of short-term UVB-induced tyrosinase activation,[2]; <10 min UVB,more potent than γT3
same,tyrosinase protein expression of B16 cells exposed to UV,"[2]; UV 1, 10, 30 and 60 minutes",significantly suppressed the tyrosinase protein expression
same,long-term inhibitory effect on UVB-induced tyrosinase activation,[2]; long-term UVB,comparable
same,melanin content lower than controls,[3]; day 5,45%
same,melanin content lower than controls,[3]; day 9,30%
same,constitutive melanin synthesis,[3]; B16 melanoma cells,suppress constitutive melanin synthesis
same,tyrosinase protein expression,[4]; listed as δ-T3,remarkable suppression of tyrosinase protein expression
same,tyrosinase protein expression,[4]; listed as δT3,suppresses tyrosinase protein expression
same,"tyrosinase protein suppression, dose response and relative potency",[4]; listed as δ-T3,significant suppression of tyrosinase in a dose-dependent manner
same,"tyrosinase protein suppression, dose response and relative potency",[4]; listed as δT3,most potent inhibitor of tyrosinase protein
same,time response of tyrosinase suppression,[4]; listed as δ-T3,enhanced by increasing the treatment period from 24 to 48 hrs
same,time response of tyrosinase suppression,[4]; listed as δT3,enhanced after a 48 hr incubation period
same,induction of apoptotic molecules (cleaved caspase 3 and PARP),[5],induced critical apoptotic molecules in a dose-dependent manner
same,induction of apoptotic molecules (cleaved caspase 3 and PARP),[5]; listed as δ-T3,induced cellular apoptosis
same,pigmentation of solid tumors,[6],lighter in colour compared to controls
same,tumor size,[6],significantly smaller
same,melanin content after UV exposure,[7],significantly suppressed the melanin content
same,tyrosinase mRNA,[8],No change of tyrosinase mRNA
same,tyrosinase mRNA,[8]; listed as δ-T3,not affected
same,cell pellet pigmentation,[9]; listed as delta-T3,lighter cell pigmentation
same,cell pellet pigmentation,[9]; listed as δT3,lighter cell pigmentation
